What all share (format): functional
Assay [1] has as its system Pseudomonas aeruginosa. Nature of the assay: Antibacterial activity against Pseudomonas aeruginosa by two-fold dilution method.
In assay [2] the test system is Staphylococcus aureus. Nature of the assay: Antibacterial activity against Staphylococcus aureus by two-fold dilution method. The conditions noted are these: for MIC: Staphylococcus aureus.
In assay [3] the test system is Cutibacterium acnes. Nature of the assay: Antibacterial activity against Propionibacterium acnes by two-fold dilution method.
For assay [4], the system named is Candida albicans. As to the kind of experiment: […] activity against Candida albicans by two-fold dilution method. As to conditions: for MIC: Candida albicans.
The test system of assay [5] is Escherichia coli. As to the kind of experiment: Antibacterial activity against Escherichia coli by two-fold dilution method.

SMILES strings stand for the structures. In brackets after ≈: the same amount, converted by molar mass.

The term MIC denotes the smallest concentration in the dilution series that meets the test's criterion for growth inhibition. Low readings indicate a more susceptible organism, high ones a less susceptible organism.

As to `COC(=O)CCC[C@@H]1[C@H]2CCCN3CCC[C@@H](CN1C(=O)c1cc4ccc(Cl)cc4n1Cc1cc(C(C)(C)C)cc(C(C)(C)C)c1)[C@@H]23`, the MIC in assay [1] stood at 0.466 µg/mL (≈ 0.706 µM); in assay [2] it was 0.093 µg/mL (≈ 0.141 µM); in assay [3], 0.29 µg/mL (≈ 0.439 µM); in assay [4], 9.02 µg/mL (≈ 13.7 µM); in assay [5] it was 1.49 µg/mL (≈ 2.25 µM). Also, the “-logMIC” value in assay [2] was 1.032; in assay [4], -0.955.
Turning to `COC(=O)CCC[C@@H]1[C@H]2CCCN3CCC[C@@H](CN1C(=O)c1cc4ccc(Cl)cc4n1Cc1ccc(F)c(F)c1)[C@@H]23`, the MIC came out at 0.5 µg/mL (≈ 0.856 µM) in assay [1]; 0.427 µg/mL (≈ 0.731 µM) in assay [2]; 0.12 µg/mL (≈ 0.205 µM) in assay [3]; 9.55 µg/mL (≈ 16.3 µM) in assay [4]; 0.483 µg/mL (≈ 0.827 µM) in assay [5]. The results for the “-logMIC” value in assay [2] and in assay [4] were 0.37 and -0.98, respectively.
Consider `COC(=O)CCC[C@@H]1[C@H]2CCCN3CCC[C@@H](CN1C(=O)c1cc4ccc(Cl)cc4n1Cc1ccccc1[N+](=O)[O-])[C@@H]23`, for which the MIC in assay [1] came out at 0.852 µg/mL (≈ 1.44 µM); in assay [2], 0.133 µg/mL (≈ 0.224 µM); in assay [3], 2.86 µg/mL (≈ 4.82 µM); in assay [4] it was 11.1 µg/mL (≈ 18.8 µM); in assay [5] it was 0.694 µg/mL (≈ 1.17 µM). Besides, the results for the “-logMIC” value in assay [2] and in assay [4] were 0.876 and -1.05, respectively.
`COC(=O)CCC[C@@H]1[C@H]2CCCN3CCC[C@@H](CN1C(=O)c1cc4ccc(Cl)cc4n1Cc1cccc(OCc4ccccc4)c1)[C@@H]23`: the MIC in assay [1] was determined as 0.975 µg/mL (≈ 1.49 µM); in assay [2], 0.117 µg/mL (≈ 0.179 µM); in assay [3], 0.093 µg/mL (≈ 0.142 µM); in assay [4], 9.8 µg/mL (≈ 15 µM); in assay [5], 0.894 µg/mL (≈ 1.37 µM). In addition, the “-logMIC” value in assay [2] is 0.932; in assay [4], -0.991.
On to `COC(=O)CCC[C@@H]1[C@H]2CCCN3CCC[C@@H](CN1C(=O)c1cc4ccc(Cl)cc4n1Cc1cccc(C(F)(F)F)c1)[C@@H]23`, for which the MIC stood at 0.234 µg/mL (≈ 0.38 µM) in assay [1]; 0.136 µg/mL (≈ 0.221 µM) in assay [2]; 0.058 µg/mL (≈ 0.0941 µM) in assay [3]; 4.52 µg/mL (≈ 7.33 µM) in assay [4]; 0.559 µg/mL (≈ 0.907 µM) in assay [5]. In addition, the “-logMIC” value in assay [2] was 0.866; in assay [4] it was -0.655.
With `COC(=O)CCC[C@@H]1[C@H]2CCCN3CCC[C@@H](CN1C(=O)c1cc4ccc(Cl)cc4n1Cc1ccc(F)cc1Br)[C@@H]23`, the MIC turned out to be 0.445 µg/mL (≈ 0.69 µM) in assay [1]; 0.348 µg/mL (≈ 0.54 µM) in assay [2]; 0.351 µg/mL (≈ 0.544 µM) in assay [3]; 8.74 µg/mL (≈ 13.6 µM) in assay [4]; 1.04 µg/mL (≈ 1.62 µM) in assay [5]. Besides, the “-logMIC” value was 0.458 in assay [2] and -0.942 in assay [4].
As to `COC(=O)CCC[C@@H]1[C@H]2CCCN3CCC[C@@H](CN1C(=O)c1cc4ccc(Cl)cc4n1Cc1cc(C#N)ccc1F)[C@@H]23`, the MIC in assay [1] amounted to 0.658 µg/mL (≈ 1.11 µM); in assay [2], 3.86 µg/mL (≈ 6.54 µM); in assay [3], 0.2 µg/mL (≈ 0.338 µM); in assay [4], 10.6 µg/mL (≈ 17.9 µM); in assay [5] it was 0.644 µg/mL (≈ 1.09 µM). Moreover, the “-logMIC” value in assay [2] is 0.587; in assay [4] it was -1.02.
As for `COC(=O)CCC[C@@H]1[C@H]2CCCN3CCC[C@@H](CN1C(=O)c1cc4ccc(Cl)cc4n1Cc1ccc(C(F)(F)F)cc1)[C@@H]23`, the MIC in assay [1] was 0.092 µg/mL (≈ 0.149 µM); in assay [2] it was 0.021 µg/mL (≈ 0.0341 µM); in assay [3], 0.03 µg/mL (≈ 0.0487 µM); in assay [4] it was 2.81 µg/mL (≈ 4.55 µM); in assay [5], 0.379 µg/mL (≈ 0.615 µM). The figures for the “-logMIC” value in assay [2] and in assay [4] were 1.678 and -0.448, respectively.
As to `COC(=O)CCC[C@@H]1[C@H]2CCCN3CCC[C@@H](CN1C(=O)c1cc4ccc(Cl)cc4n1Cc1cc(Cl)ccc1F)[C@@H]23`, the MIC in assay [1] was found to be 0.5 µg/mL (≈ 0.833 µM); in assay [2], 0.097 µg/mL (≈ 0.162 µM); in assay [3], 0.084 µg/mL (≈ 0.14 µM); in assay [4], 5.48 µg/mL (≈ 9.12 µM); in assay [5] it was 0.848 µg/mL (≈ 1.41 µM). Besides, the results for the “-logMIC” value in assay [2] and in assay [4] were 1.013 and -0.739, respectively.
Turning to `COC(=O)CCC[C@@H]1[C@H]2CCCN3CCC[C@@H](CN1C(=O)c1cc4ccc(Cl)cc4n1Cc1cccc([N+](=O)[O-])c1)[C@@H]23`, the MIC was determined as 0.387 µg/mL (≈ 0.652 µM) in assay [1]; 0.031 µg/mL (≈ 0.0523 µM) in assay [2]; 0.248 µg/mL (≈ 0.418 µM) in assay [3]; 11.7 µg/mL (≈ 19.7 µM) in assay [4]; 0.954 µg/mL (≈ 1.61 µM) in assay [5]. Moreover, the “-logMIC” value in assay [2] is 1.509; in assay [4] it was -1.07.
`COC(=O)CCC[C@@H]1[C@H]2CCCN3CCC[C@@H](CN1C(=O)c1cc4ccc(Cl)cc4n1Cc1ccccc1)[C@@H]23`: the MIC in assay [1] was found to be 0.844 µg/mL (≈ 1.54 µM); in assay [2] it was 0.521 µg/mL (≈ 0.951 µM); in assay [3] it was 0.478 µg/mL (≈ 0.872 µM); in assay [4] it was 8.94 µg/mL (≈ 16.3 µM); in assay [5] it was 1.23 µg/mL (≈ 2.25 µM). Besides, the “-logMIC” value in assay [2] was 0.283; in assay [4], -0.951.
With `COC(=O)CCC[C@@H]1[C@H]2CCCN3CCC[C@@H](CN1C(=O)c1cc4ccc(Cl)cc4n1Cc1cc(OC)ccc1Br)[C@@H]23`, the minimum inhibitory concentration (MIC) was found to be 0.323 µg/mL (≈ 0.492 µM) in assay [1]; 0.774 µg/mL (≈ 1.18 µM) in assay [2]; 0.175 µg/mL (≈ 0.266 µM) in assay [3]; 9.92 µg/mL (≈ 15.1 µM) in assay [4]; 0.933 µg/mL (≈ 1.42 µM) in assay [5]. Moreover, the “-logMIC” value is 0.111 in assay [2] and -0.997 in assay [4].
As to `COC(=O)CCC[C@@H]1[C@H]2CCCN3CCC[C@@H](CN1C(=O)c1cc4ccc(Cl)cc4n1Cc1ccccc1C(C)(C)C)[C@@H]23`, the minimal inhibitory concentration (MIC) in assay [1] was 0.926 µg/mL (≈ 1.53 µM); in assay [2], 0.178 µg/mL (≈ 0.295 µM); in assay [3], 0.354 µg/mL (≈ 0.586 µM); in assay [4], 7.9 µg/mL (≈ 13.1 µM); in assay [5] it was 1.14 µg/mL (≈ 1.88 µM). Also, the “-logMIC” value in assay [2] is 0.75; in assay [4], -0.898.
`COC(=O)CCC[C@@H]1[C@H]2CCCN3CCC[C@@H](CN1C(=O)c1cc4ccc(Cl)cc4n1Cc1ccccc1C#N)[C@@H]23`: the minimal inhibitory concentration (MIC) came to 0.693 µg/mL (≈ 1.21 µM) in assay [1]; 0.48 µg/mL (≈ 0.837 µM) in assay [2]; 0.848 µg/mL (≈ 1.48 µM) in assay [3]; 11.2 µg/mL (≈ 19.6 µM) in assay [4]; 0.823 µg/mL (≈ 1.44 µM) in assay [5]. In addition, the “-logMIC” value is 0.319 in assay [2] and -1.05 in assay [4].
As to `O=C1CCC[C@@H]2[C@H]3CCCN4CCC[C@@H](CN12)[C@@H]34` [MATRINE], the MIC is 6.73 µg/mL (≈ 27.1 µM) in assay [1]; 7.43 µg/mL (≈ 29.9 µM) in assay [2]; 16 µg/mL (≈ 64.3 µM) in assay [3]; 8 µg/mL (≈ 32.2 µM) in assay [4]; 5.46 µg/mL (≈ 22 µM) in assay [5].

(Values after ChEMBL document CHEMBL5579805, “Synthesis, antibacterial activity, and 3D-QASR studies of matrine-indole derivatives as potential antibiotics” (2024).)
